The source of these data is ChEMBL document CHEMBL3352324, “Progress in the discovery and development of heat shock protein 90 (Hsp90) inhibitors” (J Med Chem, 2014).

Data set [1] can be described thus: Drug metabolism in human liver microsomes. It is filed as ADME. The note with it: read-out: Drug metabolism. Background: Microsomes from liver hold many membrane-bound enzymes, among them those of drug oxidation.
The nature of data set [2]: Antiproliferative activity against human colon cancer cells. It is filed as functional, cell-based. The note with it: Cancer cell lines.
In a further data set the target is Heat shock protein HSP90 (Homo sapiens, UniProt P07900+P08238). Kind of data set: Inhibition of HSP90 (unknown origin). It is filed as protein assay.
For a further data set, the system named is MCF7. Kind of data set: Antiproliferative activity against human MCF7 cells. The format is functional, cell-based.
Data set [3] in a line: Cytotoxicity against human ARPE19 cells. The format is cell-based. To be noted: ARPE-19.
The test system of the next data set is HUVEC. The data set can be described thus: Cytotoxicity against HUVEC. It is filed as cell-based. To be noted: Homo sapiens.
The subject of the next data set is Homo sapiens. Kind of data set: Toxicity in patient assessed as median survival time at 450 mg/m'2, iv administered per week. It is filed as organism-based. To be noted: in vivo.

One may read the IC50 as the concentration that gives 50% inhibition. In the case of `O=C1CCCC/C=C/CCOC(=O)c2c(O)cc(O)c(Cl)c2C1`, the metabolised in data set [1] turned out to be 90%. Besides, the IC50 in data set [2] worked out at 7.6 µM.
For the compound `O=C1NCC/C=C/CCCC(C(=O)NCc2ccccc2)C(=O)Cc2c(Cl)c(O)cc(O)c21` (stereo unspecified), the metabolised in data set [1] is 47%. Moreover, the IC50 amounted to 0.2 µM against Heat shock protein HSP90 and 0.6 µM in data set [2].
`CC(=O)Oc1ccc(C(=O)O[C@@H]2Cc3c(O)cc(O)cc3O[C@@H]2c2ccccc2)cc1CC=C(C)C` gave an IC50 with MCF7 of 4 µM.
For `CO[C@H]1/C=C\C=C(/C)C(=O)NC2=C(c3ccccc3)C(=O)C(NCCN(C)C)=C(C[C@@H](C)C[C@H](OC)[C@H](O)[C@@H](C)/C=C(\C)[C@@H]1OC(N)=O)C2=O` (stereo in doubt), the concentration for half-maximal inhibition (IC50) (in data set [3]; in the data set with HUVEC) was less than 5 µM each time.
In the case of `O=C(O[C@@H]1Cc2c(O)cc(O)cc2O[C@@H]1c1cc(O)c(O)c(O)c1)c1cc(O)c(O)c(O)c1` [EPIGALOCATECHIN GALLATE], it took 74 µM to reach half-maximal inhibition with MCF7 (IC50).
With `C[C@@H]1C[C@H]2O[C@@H]2/C=C\C=C\C(=O)Cc2c(Cl)c(O)cc(O)c2C(=O)O1` [RADICICOL], in data set [1], the metabolised was 83%.
For `C=CCNC1=C2C[C@@H](C)C[C@H](OC)[C@H](O)[C@@H](C)/C=C(\C)[C@H](OC(N)=O)[C@@H](OC)/C=C\C=C(/C)C(=O)NC(=CC1=O)C2=O` [TANESPIMYCIN], the MST in the data set on Homo sapiens is 232 days.
